From patent US20260250318A1, “COMPOSITIONS AND METHODS FOR CROSSING THE BLOOD BRAIN BARRIER” (VOYAGER THERAPEUTICS, INC., priority 2022, published 2026)

How the values were obtained:
brain [1] = assay: Maturation of TTM-002 capsid, NGS enrichment in brain of CD-1 Outbred mice; assay type: in vivo; settings: NGS fold-enrichment in the brain of CD-1 Outbred mice; intravenous, 1.0×10^12 VG/dose, 14 days; RNA; relative to non-matured TTM-002 control
From the text: This Example describes maturation of the TTM-001 (SEQ ID NO: 981 (amino acid) and 983 (DNA), comprising SEQ ID NO: 941) and TTM-002 (SEQ ID NO: 982 (amino acid) and 984 (DNA), comprising SEQ ID NO: 2) capsid variants to further enhance their transduction and biodistribution in the central nervous system and evolve the AAV capsid variants to provide further cross-species compatibility. Two approaches were used to mature the TTM-001 and TTM-002 capsid sequences in order to randomize and mutate within and around the peptide insert comprised within loop IV of the capsid variant. […] In the first maturation approach, sets of three contiguous amino acids were randomized across the mutagenesis region in the TTM-001 and TTM-002 sequences, which spanned from position 450 to position 466, numbered according to SEQ ID NO: 981 and 982. In the second maturation approach, mutagenic primers were used to introduce point mutations at a low frequency, scattered across the mutagenesis region in the TTM-001 and TTM-002 sequences ranging from position 449 to position 466, numbered according to SEQ ID NO: 981 and 982. AAV capsid variants arising from each maturation approach for TTM-001 were pooled together and AAV capsid variants arising from each maturation approach for TTM-002 were also pooled together, for subsequent testing and characterization in mice.
The library of pooled matured AAV capsid variants generated from TTM-001 or library of pooled matured AAV capsid variants generated from the TTM-002 matured AAV capsid variant each were intravenously injected into the tail vein of three female CD-1 Outbred mice (Charles River) at a dose of 1.0×10^12 VG/dose. After 14-days in life, the brains of the mice were isolated and RNA was extracted. Following RNA recovery and RT-PCR amplification, a systematic NGS enrichment analysis was performed to calculate the fold enrichment ratio relative to the corresponding TTM-001 or TTM-002 control, and the peptides comprised within the variants were identified. The data for the TTM-001 matured capsid variants is provided in Table 13 and the data for the TTM-002 matured capsid variants is provided in Table 14.

brain [2] = assay: Matured TTM-001 and TTM-002 variants, NGS enrichment in mouse brain; assay type: in vivo, mice; settings: relative to AAV9 control
[3] = tested on: brains, heart, liver, muscle, and DRG of the NHPs; assay: Maturation of TTM-001 and TTM-002 capsids, NGS enrichment in NHP tissues; assay type: in vivo; settings: relative to AAV9 control
In short: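 Variants carry mutations within and flanking the loop IV peptide insert: positions 450–466 were triplet-randomized, while positions 449–466 received low-frequency point mutations. The combined pool went into two NHPs, and each peptide was scored by NGS enrichment ratio against AAV9.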

[4] = NGS fold-enrichment of matured AAV capsid variants, NHP brain, RNA
[5] = NGS fold-enrichment, brain of mice
[6] = NGS fold-enrichment, DRG of NHPs
[7] = NGS fold-enrichment, RNA, brain of NHPs
[8] = NGS fold-enrichment, heart of NHPs
[9] = NGS fold-enrichment, liver DNA of NHPs
[10] = NGS fold-enrichment, liver RNA of NHPs
[11] = NGS fold-enrichment, muscle of NHPs
[12] = NGS fold-enrichment, mouse brain
[13] = NGS fold-enrichment of RNA, NHP brain
[14] = NGS fold-enrichment, NHP liver DNA
[15] = NGS fold-enrichment, NHP liver RNA
[16] = NGS fold-enrichment, NHP muscle

Sequence: KLEYGHDSPHKSGQNQQT
- Fold enrichment over TTM-002 (brain [1]): 2.33

Sequence: KLPEGHDSPHKSGQNQQT
- Fold enrichment over TTM-002 (brain [1]): 2.19

Sequence: KMDAGHDSPHKSGQNQQT
- Fold enrichment over TTM-002 (brain [1]): 2.15

Sequence: KMDGGHDSPHKSGQNQQT
- Fold enrichment over TTM-002 (brain [1]): 2.09

Sequence: KMEAGHDSPHKSGQNQQT
- Fold enrichment over TTM-002 (brain [1]): 2.12

Sequence: KMEFGHDSPHKSGQNQQT
- Fold enrichment over TTM-002 (brain [1]): 2.21

Sequence: KMEGGHDSPHKSGQNQQT
- Fold enrichment over TTM-002 (brain [1]): 2.72

Sequence: KMEIGHDSPHKSGQNQQT
- Fold enrichment over TTM-002 (brain [1]): 2.34

Sequence: KMELGHDSPHKSGQNQQT
- Fold enrichment over TTM-002 (brain [1]): 2.13

Sequence: KMEMGHDSPHKSGQNQQT
- Fold enrichment over TTM-002 (brain [1]): 2.16

Sequence: KMESGHDSPHKSGQNQQT
- Fold enrichment over TTM-002 (brain [1]): 2.18

Sequence: KMETGHDSPHKSGQNQQT
- Fold enrichment over TTM-002 (brain [1]): 2.12

Sequence: KMEVGHDSPHKSGQNQQT
- Fold enrichment over TTM-002 (brain [1]): 2.11

Sequence: KMEWGHDSPHKSGQNQQT
- Fold enrichment over TTM-002 (brain [1]): 2.38

Sequence: KMEYGHDSPHKSGQNQQT
- Fold enrichment over TTM-002 (brain [1]): 2.71

Sequence: KMPEGHDSPHKSGQNQQT
- Fold enrichment over TTM-002 (brain [1]): 3.18

Sequence: KNMNGHDSPHKSGQNTHS
- Fold enrichment over TTM-002 (brain [1]): 2.06

Sequence: KQEVGHDSPHKSGQNQQT
- Fold enrichment over TTM-002 (brain [1]): 2.07

Sequence: KTVPTSGSPHSKAQNQQT
- Fold Enrichment relative to AAV9, Brain (Mouse) (brain [2]; mouse brain): 102.651 fold
- Fold Enrichment relative to AAV9, Brain (NHP) [3, 4]: 51.348 fold
- Fold Enrichment relative to AAV9, DRG (NHP) ([3]; NHP DRG): 0.013 fold
- Fold Enrichment relative to AAV9, Heart (NHP) ([3]; NHP heart): 0.000 fold
- Fold Enrichment relative to AAV9, Liver DNA (NHP) ([3]; NHP liver, DNA): 0.338 fold
- Fold Enrichment relative to AAV9, Liver RNA (NHP) ([3]; NHP liver, RNA): 1.017 fold
- Fold Enrichment relative to AAV9, Muscle (NHP) ([3]; NHP muscle): 0.000 fold

Sequence: KTVRDSGSPHSKAQNQQT
- Fold Enrichment relative to AAV9, Brain (Mouse) (brain [2]; [5]): 142.600 fold
- Fold Enrichment relative to AAV9, DRG (NHP) [3, 6]: 0.000 fold
- Fold Enrichment relative to AAV9, Brain (NHP) [3, 7]: 66.056 fold
- Fold Enrichment relative to AAV9, Heart (NHP) [3, 8]: 0.025 fold
- Fold Enrichment relative to AAV9, Liver DNA (NHP) [3, 9]: 0.461 fold
- Fold Enrichment relative to AAV9, Liver RNA (NHP) [3, 10]: 0.129 fold
- Fold Enrichment relative to AAV9, Muscle (NHP) [3, 11]: 0.000 fold

Sequence: KTWQNSGSPHSKAQNQQT
- Fold Enrichment relative to AAV9, Brain (Mouse) (brain [2]; mouse brain): 114.258 fold
- Fold Enrichment relative to AAV9, Brain (NHP) [3, 4]: 55.245 fold
- Fold Enrichment relative to AAV9, DRG (NHP) ([3]; NHP DRG): 0.000 fold
- Fold Enrichment relative to AAV9, Heart (NHP) ([3]; NHP heart): 0.000 fold
- Fold Enrichment relative to AAV9, Liver DNA (NHP) ([3]; NHP liver, DNA): 0.265 fold
- Fold Enrichment relative to AAV9, Liver RNA (NHP) ([3]; NHP liver, RNA): 0.111 fold
- Fold Enrichment relative to AAV9, Muscle (NHP) ([3]; NHP muscle): 0.000 fold

Sequence: KVINGHDSPHKSGQTQQT (peptide inserted in AAV capsid)
- Fold Enrichment relative to AAV9, Brain (Mouse) (brain [2]; [12]): 7.391 fold
- Fold Enrichment relative to AAV9, Brain (NHP) [3, 13]: 91.665 fold
- Fold Enrichment relative to AAV9, DRG (NHP) ([3]; NGS fold-enrichment, NHP DRG): 0.000 fold
- Fold Enrichment relative to AAV9, Heart (NHP) ([3]; NGS fold-enrichment, NHP heart): 0.055 fold
- Fold Enrichment relative to AAV9, Liver DNA (NHP) [3, 14]: 0.000 fold
- Fold Enrichment relative to AAV9, Liver RNA (NHP) [3, 15]: 0.311 fold
- Fold Enrichment relative to AAV9, Muscle (NHP) [3, 16]: 1.526 fold

Sequence: KVINGSGSPHSKGQNQQT (peptide inserted in AAV capsid)
- Fold Enrichment relative to AAV9, Brain (Mouse) (brain [2]; [5]): 68.532 fold
- Fold Enrichment relative to AAV9, DRG (NHP) [3, 6]: 0.000 fold
- Fold Enrichment relative to AAV9, Brain (NHP) [3, 7]: 60.001 fold
- Fold Enrichment relative to AAV9, Heart (NHP) [3, 8]: 0.000 fold
- Fold Enrichment relative to AAV9, Liver DNA (NHP) [3, 9]: 0.157 fold
- Fold Enrichment relative to AAV9, Liver RNA (NHP) [3, 10]: 0.264 fold
- Fold Enrichment relative to AAV9, Muscle (NHP) [3, 11]: 0.031 fold

Sequence: NTINGSGSPHSKAQNQQT (peptide inserted in AAV capsid)
- Fold Enrichment relative to AAV9, Brain (Mouse) (brain [2]; [5]): 55.179 fold
- Fold Enrichment relative to AAV9, Brain (Mouse) (brain [2]; [12]): 55.179 fold
- Fold Enrichment relative to AAV9, Brain (NHP) [3, 13]: 90.017 fold
- Fold Enrichment relative to AAV9, DRG (NHP) [3, 6]: 1.712 fold
- Fold Enrichment relative to AAV9, DRG (NHP) ([3]; NGS fold-enrichment, NHP DRG): 1.712 fold
- Fold Enrichment relative to AAV9, Heart (NHP) ([3]; NGS fold-enrichment, NHP heart): 1.261 fold
- Fold Enrichment relative to AAV9, Liver DNA (NHP) [3, 14]: 0.540 fold
- Fold Enrichment relative to AAV9, Liver RNA (NHP) [3, 15]: 0.923 fold
- Fold Enrichment relative to AAV9, Muscle (NHP) [3, 16]: 1.171 fold
- Fold Enrichment relative to AAV9, Brain (NHP) [3, 7]: 90.017 fold
- Fold Enrichment relative to AAV9, Heart (NHP) [3, 8]: 1.261 fold
- Fold Enrichment relative to AAV9, Liver DNA (NHP) [3, 9]: 0.540 fold
- Fold Enrichment relative to AAV9, Liver RNA (NHP) [3, 10]: 0.923 fold
- Fold Enrichment relative to AAV9, Muscle (NHP) [3, 11]: 1.171 fold

Sequence: NTIYGSGSPHSKAQNQQT (peptide inserted in AAV capsid)
- Fold Enrichment relative to AAV9, Brain (Mouse) (brain [2]; [5]): 59.707 fold
- Fold Enrichment relative to AAV9, DRG (NHP) [3, 6]: 1.739 fold
- Fold Enrichment relative to AAV9, Brain (NHP) [3, 7]: 71.267 fold
- Fold Enrichment relative to AAV9, Heart (NHP) [3, 8]: 0.000 fold
- Fold Enrichment relative to AAV9, Liver DNA (NHP) [3, 9]: 0.209 fold
- Fold Enrichment relative to AAV9, Liver RNA (NHP) [3, 10]: 0.000 fold
- Fold Enrichment relative to AAV9, Muscle (NHP) [3, 11]: 273.69 fold

Sequence: TTINGHDSPHKSGQNQQT (peptide inserted in AAV capsid)
- Fold Enrichment relative to AAV9, Brain (Mouse) (brain [2]; [12]): 14.788 fold
- Fold Enrichment relative to AAV9, Brain (NHP) [3, 13]: 108.963 fold
- Fold Enrichment relative to AAV9, DRG (NHP) ([3]; NGS fold-enrichment, NHP DRG): 1.512 fold
- Fold Enrichment relative to AAV9, Heart (NHP) ([3]; NGS fold-enrichment, NHP heart): 3.445 fold
- Fold Enrichment relative to AAV9, Liver DNA (NHP) [3, 14]: 1.109 fold
- Fold Enrichment relative to AAV9, Liver RNA (NHP) [3, 15]: 0.659 fold
- Fold Enrichment relative to AAV9, Muscle (NHP) [3, 16]: 0.869 fold

Sequence: TTINGSGSPHSKAQNQQT (peptide inserted in AAV capsid)
- Fold Enrichment relative to AAV9, Brain (Mouse) (brain [2]; [5]): 72.058 fold
- Fold Enrichment relative to AAV9, Brain (Mouse) (brain [2]; [12]): 72.058 fold
- Fold Enrichment relative to AAV9, Brain (NHP) [3, 13]: 114.856 fold
- Fold Enrichment relative to AAV9, DRG (NHP) [3, 6]: 1.340 fold
- Fold Enrichment relative to AAV9, DRG (NHP) ([3]; NGS fold-enrichment, NHP DRG): 1.340 fold
- Fold Enrichment relative to AAV9, Heart (NHP) ([3]; NGS fold-enrichment, NHP heart): 14.856 fold
- Fold Enrichment relative to AAV9, Liver DNA (NHP) [3, 14]: 0.957 fold
- Fold Enrichment relative to AAV9, Liver RNA (NHP) [3, 15]: 1.281 fold
- Fold Enrichment relative to AAV9, Muscle (NHP) [3, 16]: 0.827 fold
- Fold Enrichment relative to AAV9, Brain (NHP) [3, 7]: 114.856 fold
- Fold Enrichment relative to AAV9, Heart (NHP) [3, 8]: 14.856 fold
- Fold Enrichment relative to AAV9, Liver DNA (NHP) [3, 9]: 0.957 fold
- Fold Enrichment relative to AAV9, Liver RNA (NHP) [3, 10]: 1.281 fold
- Fold Enrichment relative to AAV9, Muscle (NHP) [3, 11]: 0.827 fold
